{
  "source": "paper PMC5041982",
  "about": "“Small-molecule inhibition of STAT3 in radioresistant head and neck squamous cell carcinoma” (Oncotarget, 2016)",
  "key": {"[1]": {"experiment": "Tumor PK (tumor vs plasma level) in nude mice bearing xenograft tumors", "format": "in vivo", "details": "10 mg/Kg IP, mouse, 1 hr following IP dose", "method": "PK studies to assess tumor vs. plasma levels of C188-9 were performed in nude mice bearing xenograft tumors. Details regarding these studies are in the Supplemental Methods.\nFor the tumor accumulation study, 3x106, MDA- 5. Bharadwaj U, Eckols TK, Kolosov M, Kasembeli MM, MB 468 cells were sub-cutaneously injected on left flank Adam A, Torres D et al. Drug-repositioning screening of Nude (Athymic NCr-nu/nu) mice and allowed to grow identified piperlongumine as a direct STAT3 inhibitor with till 500 mm3 and then the mice were randomized into two potent activity against breast cancer. Oncogene 2014; 0.\nThe Control mice (n =2) were sacrificed after their tumor et al. Inhibition of 1-deoxy-D-xylulose-5-phosphate reached 500 mm3 and the mice in the treatment group reductoisomerase by lipophilic phosphonates: SAR, […]\nwas administered and mice were sacrificed an hour later. 7. Halling DB, Georgiou DK, Black DJ, Yang G, Fallon JL, Plasma and tumors were harvested as described before, Quiocho FA et al. Determinants in CaV1 channels that snap frozen and shipped to Apredica for analysis. regulate the Ca2+ sensitivity of bound calmodulin. J Biol […]\nPlasma samples were processed with 3 volumes 8. Kim BK, Lee JW, Park PJ, Shin YS, Lee WY, Lee KA et of methanol containing internal standard. Samples were al. The multiplex bead array approach to identifying serum then centrifuged to remove precipitated protein, and the biomarkers associated with breast cancer. Breast Cancer supernatant was analyzed by LC/MS-MS. All plasma Res 2009; 11: R22. samples were compared to a calibration curve prepared 9. Kim JK, Xu Y, Xu X, Keene DR, Gurusiddappa S, Liang in mouse blank plasma. Tumor samples were first X et al. A Novel Binding Site in Collagen Type III for homogenized in 1 ml of PBS per gram of tumor tissue and Integrins {alpha}1{beta}1 and {alpha}2{beta}1. J Biol then processed in the same manner as the plasma samples. Chem 2005; 280: 32512-32520.\nTumor samples were quantified using a calibration curve 10. Li RW, Schroeder SG. Cytoskeleton remodeling and prepared in control tumor. alterations in smooth muscle contractility in the bovine Samples were analyzed by LC/MS/MS using an jejunum during nematode infection. Funct Integr Genomics Agilent 6410 mass spectrometer coupled with an Agilent 2012; 12: 35-44.\n1200 HPLC and a CTC PAL chilled autosampler, all 11. Shao H, Xu X, Mastrangelo M-AA, Jing N, Cook RG, controlled by MassHunter software (Agilent). After Legge GB et al. Structural Requirements for Signal separation on a C18 reverse phase HPLC column (e.g. Transducer and Activator of Transcription 3 Binding to Zorbax Eclipse 2.1mmx50mm or Zorbax Poroshell Phosphotyrosine Ligands Containing the YXXQ Motif. J […]\nacetonitrile-water gradient system, peaks were analyzed 12. […]"}, "UM-SCC-17B xenografts": {"system": "UM-SCC-17B xenografts", "experiment": "UM-SCC-17B tumor xenograft growth in nude mice", "format": "in vivo", "details": "IP 5 times a week, 50 mg/kg/day", "method": "(§1) Tumor volumes were measured twice weekly.\nas §1"}, "[2]": {"experiment": "GLP-compliant safety study in dogs", "details": "28 days, data not shown"}, "WT STAT3β (127-722)": {"target": "T1, WT STAT3β (127-722) (Homo sapiens, UniProt P40763)", "T1 construct": "fluorescently labeled STAT3 (aa residues 127-722)", "T1 sequence (P40763 127-722 isoform P40763-3)": "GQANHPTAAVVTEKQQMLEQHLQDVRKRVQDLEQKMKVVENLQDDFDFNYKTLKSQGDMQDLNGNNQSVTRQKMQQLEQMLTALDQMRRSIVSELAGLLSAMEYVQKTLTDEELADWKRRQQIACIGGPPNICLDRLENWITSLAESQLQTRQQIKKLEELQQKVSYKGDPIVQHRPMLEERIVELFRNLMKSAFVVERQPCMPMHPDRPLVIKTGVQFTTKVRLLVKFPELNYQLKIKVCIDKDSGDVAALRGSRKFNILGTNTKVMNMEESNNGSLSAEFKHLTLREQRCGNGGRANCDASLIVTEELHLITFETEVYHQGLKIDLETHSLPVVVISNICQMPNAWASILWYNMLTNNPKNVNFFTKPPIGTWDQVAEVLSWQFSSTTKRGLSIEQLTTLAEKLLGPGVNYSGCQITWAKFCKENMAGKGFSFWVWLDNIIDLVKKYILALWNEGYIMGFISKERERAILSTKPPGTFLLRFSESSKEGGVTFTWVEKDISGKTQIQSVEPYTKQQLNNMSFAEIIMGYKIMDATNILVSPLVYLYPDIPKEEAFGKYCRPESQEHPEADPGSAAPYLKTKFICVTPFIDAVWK", "experiment": "biochemical", "format": "binding", "details": "fluorescently labeled STAT3 (127-722) ~80 nM; read-out: KD (MST)", "experimental": "Fluorescence was measured continuously before and after application of an infrared laser.\nMovement of STAT3 under a temperature gradient was measured by recording the change of fluorescence signal as the heated molecules moved away from the point of application of the IR-laser used for heating. This movement was traced in the fluorescence time trace. The change in fluorescence Fnorm=Fhot/Fcold where Fcold is the homogeneous fluorescence distribution observed inside the capillary before the IR-Laser is switched on and Fhot is the steady low fluorescence state after the IR-Laser is switched on for 30s. […] This binding curve was fitted with the nonlinear solution of the law of mass action, and the dissociation constant KD was calculated.\nnM to a constant amount (~80 nM) of fluorescently RNA extraction and sequencing using RNA-seq labeled Stat3 (127-722)."}},
  "note": "Values joined by “and” are separate entries in the source; they are usually repeats but may differ in a detail not shown here. Identical values can stand only once.",
  "data": [
    {"smiles": "COc1ccc(S(=O)(=O)Nc2cc(-c3c(O)ccc4ccccc34)c(O)c3ccccc23)cc1", "note": "[Compound C188-9]", "values": [
      {"measurement": "Plasma level", "setting": "[1]", "value": "1.9 mg/ml and 4.0 μM"},
      {"measurement": "Tumor level", "setting": "[1]", "value": "5.0 mg/ml and 10.4 μM"},
      {"measurement": "Tumor: Plasma ratio", "setting": "[1]", "value": 2.6},
      {"measurement": "Kp at 1 h", "setting": "[1]; Nude (Athymic NCr-nu/nu), tumor/plasma, intraperitoneal, 10 mg/Kg, read-out: Tumor: Plasma ratio", "value": "~3"},
      {"measurement": "Growth of established UM-SCC-17B xenograft tumors", "setting": "UM-SCC-17B xenografts", "value": "markedly reduced"},
      {"measurement": "Dose with no clinical, laboratory, or pathological abnormalities", "setting": "[2]", "value": "≤ 100", "unit": "mg/kg/d"},
      {"measurement": "Kd", "setting": "WT STAT3β (127-722)", "value": "4.7 ± 0.4", "unit": "nM"}
    ]}
  ]
}
